Reference: patent US8445680B2, “Tetrahydrothieno pyridines” (Merck Sharp & Dohme Corp., priority 2008, dated 2013)
pIC50: −log10 of the molar value. Counter-ions that a name gives are not always drawn.

molecular target: T1, FLAG-tagged full length PHD2 (Homo sapiens, UniProt Q9GZT9); test: PHD2 inhibition assay (time resolved fluorescence, HIF-1α peptide hydroxylation, VHL detection); type: biochemical; settings: 0.2 μM 2-oxoglutarate, 0.5 μM HIF-1α peptide, 2 hr at room temperature; read-out: PHD2 Activity (PHD2 binding activity expressed as IC50)
T1 construct: FLAG-tagged full length PHD2; FLAG; made in house; host or cells: baculovirus-infected Sf9 cells
T1 sequence (Q9GZT9 whole entry): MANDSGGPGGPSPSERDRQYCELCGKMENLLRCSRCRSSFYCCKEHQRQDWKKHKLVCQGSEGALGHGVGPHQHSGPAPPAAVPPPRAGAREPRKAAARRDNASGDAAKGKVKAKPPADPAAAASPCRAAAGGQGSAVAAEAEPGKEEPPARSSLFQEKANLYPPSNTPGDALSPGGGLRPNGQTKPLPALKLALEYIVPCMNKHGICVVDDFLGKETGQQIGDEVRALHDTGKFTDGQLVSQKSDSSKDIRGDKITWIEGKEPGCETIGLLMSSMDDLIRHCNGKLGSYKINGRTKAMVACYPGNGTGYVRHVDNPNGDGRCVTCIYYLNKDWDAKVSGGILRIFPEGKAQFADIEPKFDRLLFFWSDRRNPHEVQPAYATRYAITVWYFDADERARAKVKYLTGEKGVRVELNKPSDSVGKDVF
Protocol: To each well of a 96-well plate was added 1 μL of test compound in DMSO and 20 μl of assay buffer (50 mM Tris pH 7.4/0.01% Tween-20/0.1 mg/ml bovine serum albumin/10 μM ferrous sulfate/1 mM sodium ascorbate/20 μg/ml catalase) containing 0.15 μg/ml FLAG-tagged full length PHD2 expressed in and purified from baculovirus-infected Sf9 cells. After a 30 min preincubation at room temperature, the enzymatic reactions were initiated by the addition of 4 μL of substrates (final concentrations of 0.2 μM 2-oxoglutarate and 0.5 μM HIF-1α peptide biotinyl-[…]).

Row | SMILES | pIC50
1 | CCc1ccccc1-c1ccc(Cn2c3c(c(O)c(C(=O)NCC(=O)O)c2=O)CSC3)cn1 [Example 50, N-[(l-{[6-(2-ethylphenyl)pyridinium-3-yl]methyl}-4-hydroxy-2-oxo-1,2,5,7-tetrahydrothieno[3,4-b]pyridin-3-yl)carbonyl]glycine trifluoroacetate] | ≥ 8.00
2 | O=C(O)CNC(=O)c1c(O)c2c(n(Cc3ccc(-c4cccc(OC(F)(F)F)c4)nc3)c1=O)CSC2 [Example 49, N-{[4-hydroxy-2-oxo-1-({6-[3-(trifluoromethoxy)phenyl]pyridinium-3-yl}methyl)-1,2,5,7-tetrahydrothieno[3,4-b]pyridin-3-yl]carbonyl}glycine trifluoroacetate] | ≥ 8.00
3 | CCc1ccc(Cn2c3c(c(O)c(C(=O)NCC(=O)O)c2=O)CS(=O)(=O)C3)cc1 [Example 66, N-{[1-(4-ethylbenzyl)-4-hydroxy-6,6-dioxido-2-oxo-1,2,5,7-tetrahydrothieno[3,4-b]pyridin-3-yl]carbonyl}glycine] | ≥ 8.00
4 | O=C(O)CNC(=O)c1c(O)c2c(n(Cc3nc(-c4ccccc4)cs3)c1=O)CSC2 [Example 7, N-({4-hydroxy-2-oxo-1-[(4-phenyl-1,3-thiazol-2-yl)methyl]-1,2,5,7-tetrahydrothieno[3,4-b]pyridin-3-yl}carbonyl)glycine] | ≥ 8.00
5 | O=C(O)CNC(=O)c1c(O)c2c(n(Cc3ccc(Br)cc3)c1=O)CSC2 [Example 2] | ≥ 8.00
6 | N#Cc1cccc(-c2ccc(Cn3c4c(c(O)c(C(=O)NCC(=O)O)c3=O)CSC4)cc2)c1 [Example 46, N-({1-[(3′-cyanobiphenyl-4-yl)methyl]-4-hydroxy-2-oxo-1,2,5,7-tetrahydrothieno[3,4-b]pyridin-3-yl}carbonyl)glycine] | ≥ 8.00
7 | O=C(O)CNC(=O)c1c(O)c2c(n(Cc3cnc(-c4ccccc4F)cn3)c1=O)CSC2 [Example 26, N-[(1-{[5-(2-fluorophenyl)pyrazin-2-yl]methyl}-4-hydroxy-2-oxo-1,2,5,7-tetrahydrothieno[3,4-b]pyridin-3-yl)carbonyl]glycine] | ≥ 8.00
8 | O=C(O)CNC(=O)c1c(O)c2c(n(Cc3ccc(C(F)(F)F)cc3)c1=O)CSC2 [Example 4, N-({4-hydroxy-2-oxo-1-[4-(trifluoromethyl)benzyl]-1,2,5,7-tetrahydrothieno[3,4-b]pyridin-3-yl]carbonyl)glycine] | ≥ 8.00
9 | O=C(O)CNC(=O)c1c(O)c2c(n(Cc3ccc(C(F)(F)F)nc3)c1=O)CSC2 [Example 5, N-[(4-hydroxy-2-oxo-1-{[6-(trifluoromethyl)pyridin-3-yl]methyl]-1,2,5,7-tetrahydrothieno[3,4-b]pyridin-3-yl)carbonyl]glycine] | ≥ 8.00
10 | CC(C)c1ccc(Cn2c3c(c(O)c(C(=O)NCC(=O)O)c2=O)CSC3)cc1 [Example 8, N-{[4-hydroxy-1-(4-isopropylbenzyl)-2-oxo-1,2,5,7-tetrahydrothieno[3,4-b]pyridin-3-yl]carbonyl]glycine] | ≥ 8.00
11 | Cc1n[nH]c(C)c1-c1ccc(Cn2c3c(c(O)c(C(=O)NCC(=O)O)c2=O)CSC3)cc1 [Example 31, N-({1-[4-(3,5-dimethyl-1H-pyrazol-4-yl)benzyl]-4-hydroxy-2-oxo-1,2,5,7-tetrahydrothieno[3,4-b]pyridin-3-yl}carbonyl)glycine] | ≥ 8.00
12 | O=C(O)CNC(=O)c1c(O)c2c(n(Cc3cnc(-c4ccccc4C(F)(F)F)cn3)c1=O)CSC2 [Example 57, N-{[4-hydroxy-2-oxo-1-({5-[2-(trifluoromethyl)phenyl]pyrazin-2-yl}methyl)-1,2,5,7-tetrahydrothieno[3,4-b]pyridin-3-yl]carbonyl}glycine] | ≥ 8.00
13 | CSc1ccccc1-c1ccc(Cn2c3c(c(O)c(C(=O)NCC(=O)O)c2=O)CSC3)cn1 [Example 47, N-{[4-hydroxy-1-({6-[2-(methylthio)phenyl]pyridinium-3-yl}methyl)-2-oxo-1,2,5,7-tetrahydrothieno[3,4-b]pyridin-3-yl]carbonyl}glycine trifluoroacetate] | ≥ 8.00
